# In paper PMC4633044, “Quorum Sensing Peptides Selectively Penetrate the Blood-Brain Barrier” (PLoS ONE, 2015):
# What was measured:
# [1] = test system: mouse brain (blood-brain barrier); conditions: in vivo; for Kin / Kin (text): iv
# [2] = test system: mouse brain capillaries / parenchyma; conditions: in vivo, iv
# [3] = test system: mouse brain (blood-brain barrier); conditions: in vivo
# [4] = mouse, in vivo, iv
# [5] = test system: mouse brain (blood-brain barrier); conditions: general value for the positive control; cited from earlier work
# Description: To evaluate these transport results, we compared them with the net clearances of oth ...
# [6] = 0, 30, 120 min
substance,measurement,setting,value
SYPGWSW [PhrCACET1],"Brain distribution volume, Vg",[1],54.90 ± 5.75 µL/g
same,Kin,[1],20.87 ± 7.97 µL/g/min
same,Kin (text),[1],20.87 µL/g/min
same,Capillary fraction,[2],15.1%
same,"Capillary fraction, first animal (Fig 3)",[2],13.97%
same,"Capillary fraction, second animal (Fig 3)",[2],16.20%
same,"Parenchyma fraction, first animal (Fig 3)",[2],86.03%
same,"Parenchyma fraction, second animal (Fig 3)",[2],83.80%
same,Parenchymal fraction,[2],84.9%
same,kout,[3],-0.02 ± 0.04 min⁻¹
same,kout (text),[3],-0.02 ± 0.03
same,BBB influx classification,blood-brain barrier,very high influx
dermorphin [reference compound],"Brain distribution volume, Vg",[1],23.05 ± 1.18 µL/g
same,Kin,[1],5.26 ± 0.93 µL/g/min
same,Kin (text),[1],5.26 μl/(gxmin)
same,Capillary fraction,[2],37.0%
same,Parenchymal fraction,[2],63.0%
same,kout,[3],-0.11 ± 0.02 min⁻¹
same,Tissue distribution (in words),[4],"mainly distributed in the duodenum, followed by the liver"
same,BBB influx classification,blood-brain barrier,low influx
same,clearance as % of the plasma flow to the brain,[5],about 0.05%
"GLWEDLLYNINRYAHYIT [BIP-2, bacteriocin-inducing peptide 2]","Brain distribution volume, Vg",[1],18.22 ± 1.43 µL/g
same,Kin,[1],2.68 ± 0.66 µL/g/min
same,Kin (text),[1],2.68 µL/g/min
same,Capillary fraction,[2],23.1%
same,"Capillary fraction, first animal (Fig 3)",[2],23.14%
same,"Capillary fraction, second animal (Fig 3)",[2],23.04%
same,"Parenchyma fraction, first animal (Fig 3)",[2],76.86%
same,"Parenchyma fraction, second animal (Fig 3)",[2],76.96%
same,Parenchymal fraction,[2],76.9%
same,kout,[3],-0.06 ± 0.02 min⁻¹
same,kout (text),[3],-0.06 ± 0.02
same,half-life in human plasma,[6],5.345 h
same,Tissue distribution (in words),[4],strongly accumulated in the liver
same,BBB influx classification,blood-brain barrier,low influx
